{
  "source": "patent US11542488B2",
  "about": "“Sortase synthesized chimeric antigen receptors” (Novartis AG, priority 2014, dated 2023)",
  "key": {"[1]": {"assay": "Pharmacokinetics of RAD001 in the blood of NSG mice with NALM6 tumors", "assay_type": "in vivo", "conditions": "for concentration at 24 h: mouse, blood", "protocol": "(§1) RAD001 dosing: A concentrated micro-emulsion of 50 mg equal to 1 mg RAD001 was formulated and then resuspended in D5W (dextrose 5% in water) at the time of dosing. Mice were orally dosed daily (via oral gavage) with 200 μl of the desired doses of RAD001.\nPK analysis: Mice were dosed daily with RAD001 starting 7 days post tumor implantation. Dosing groups were as follows: 0.3 mg/kg, 1 mg/kg, 3 mg/kg, and 10 mg/kg. Mice were bled on days 0 and 14 following the first and last dose of RAD001, at the following time points for PK analysis: 15 minutes, 30 minutes, 1 hour, 2 hours, 4 hours, 8 hours, 12 hours, and 24 hours."}, "huCART19 cells": {"system": "huCART19 cells", "assay": "4 day co-culture proliferation assay of CARTs with Nalm-6 cells in the presence of RAD001", "assay_type": "cell-based, human", "excerpt": "A humanized, anti-human CD19 CAR (huCART19) lentiviral transfer vector was used to produce the genomic material packaged into VSVg pseudotyped lentiviral particles. The amino acid and nucleotide sequence of the humanized anti-human CD19 CAR (huCART19) is CAR 1, ID 104875, described in PCT publication, WO2014/153270, filed Mar. 15, 2014, and is designated SEQ ID NOs. 85 and 31 therein.\nLentiviral transfer vector DNA is mixed with the three packaging components VSVg env, gag/pol and rev in combination with lipofectamine reagent to transfect Lenti-X 293T cells. Medium is changed after 24 h and 30 h thereafter, the virus-containing media is collected, filtered and stored at −80° C. CARTs are generated by transduction of fresh or frozen naïve T cells obtained by negative magnetic selection of healthy donor blood or leukopak. T cells are activated by incubation with anti-CD3/anti-CD28 beads for 24 h, after which viral supernatant or concentrated virus (MOI=2 or 10, respectively) is added to the cultures. The modified T cells are allowed to expand for about 10 days. The percentage of cells transduced (expressing the CARs on the cell surface) and the level of CAR expression (relative fluorescence intensity, Geo Mean) are determined by flow cytometric analysis between days 7 and 9. The combination of slowing growth rate and T cell size approaching ˜350 fL determines the state for T cells to be cryopreserved for later analysis.\nTo evaluate the functionality of CARTs, the T cells are thawed and counted, and viability is assessed by Cellometer. The number of CAR-positive cells in each culture is normalized using non-transduced T cells (UTD). The impact of RAD001 on CARTs was tested in titrations with RAD001, starting at 50 nM. The target cell line used in all co-culture experiments is Nalm-6, a human pre-B cell acute lymphoblastic leukemia (ALL) cell line expressing CD19 and transduced to express luciferase.\nFor measuring the proliferation of CARTs, T cells are cultured with target cells at a ratio of 1:1. The assay is run for 4 days, when cells are stained for CD3, CD4, CD8 and CAR expression. The number of T cells is assessed by flow cytometry using counting beads as reference."}, "NALM6-luc tumors": {"system": "NALM6-luc tumors", "assay": "Tumor growth of NALM6-luc cells in NSG mice with daily RAD001 dosing", "assay_type": "in vivo", "conditions": "daily oral dosing of RAD001 alone, 0.3, 1, 3 and 10 mg/kg", "protocol": "NALM6-luc cells: The NALM6 human acute lymphoblastic leukemia (ALL) cell line was developed from the peripheral blood of a patient with relapsed ALL. The cells were then tagged with firefly luciferase. These suspension cells grow in RPMI supplemented with 10% heat inactivated fetal bovine serum.\nMice: 6 week old NSG (NOD.Cg-PrkdcscidIl2rgtm1Wjl/SzJ) mice were received from the Jackson Laboratory (stock number 005557).\n(§2) Tumor implantation: NALM6-luc cells were grown and expanded in vitro in RPMI supplemented with 10% heat inactivated fetal bovine serum. The cells were then transferred to a 15 ml conical tube and washed twice with cold sterile PBS. NALM6-luc cells were then counted and resuspended at a concentration of 10×10^6 cells per milliliter of PBS. The cells were placed on ice and immediately (within one hour) implanted in the mice. NALM6-luc cells were injected intravenously via the tail vein in a 100 μl volume, for a total of 1×10^6 cells per mouse.\nas §1"}, "huCAR19 CAR T cells": {"system": "huCAR19 CAR T cells", "assay": "In vivo proliferation of humanized CD19 CAR T cells with and without RAD001 dosing", "set-up": "species or system NSG mice", "protocol": "as §2\nCAR T cell dosing: Mice were administered 5×10^6 CAR T cells 7 days after tumor implantation. Cells were partially thawed in a 37 degree Celsius water bath and then completely thawed by the addition of 1 ml of cold sterile PBS to the tube containing the cells. The thawed cells were transferred to a 15 ml falcon tube and adjusted to a final volume of 10 mls with PBS. The cells were washed twice at 1000 rpm for 10 minutes each time and then counted on a hemocytometer. T cells were then resuspended at a concentration of 50×10^6 CAR T cells per ml of cold PBS and kept on ice until the mice were dosed. The mice were injected intravenously via the tail vein with 100 μl of the CAR T cells for a dose of 5×10^6 CAR T cells per mouse. Eight mice per group were treated either with 100 μl of PBS alone (PBS), or humanized CD19 CAR T cells.\nas §1\nBased on these doses, huCAR19 CAR T cells were dosed with and without RAD001 to determine the proliferative ability of these cells. The highest dose used was 3 mg/kg based on the levels of RAD001 in the blood 24 hours after dosing. As the concentration of RAD001 was above 10 nM 24 hours after the final dose of RAD001, several lower doses of RAD001 were used in the in vivo study with CAR T cells. The CAR T cells were dosed IV one day prior to the start of the daily oral RAD001 dosing. Mice were monitored via FACS for T cell expansion."}},
  "note": "Like-named read-outs stand apart in the source and are kept apart here.",
  "data": [
    {"smiles": "CO[C@H]1C[C@@H]2CC[C@@H](C)[C@@](O)(O2)C(=O)C(=O)N2CCCC[C@H]2C(=O)O[C@H]([C@H](C)C[C@@H]2CC[C@@H](OCCO)[C@H](OC)C2)CC(=O)[C@H](C)/C=C(\\C)[C@@H](O)[C@@H](OC)C(=O)[C@H](C)C[C@H](C)/C=C/C=C/C=C/1C", "note": "[RAD001, (1R,9S,12S,15R,16E,18R,19R,21R,23S,24E,26E,28E,30S,32S,35R)-1,18-dihydroxy-12-{(1R)-2-[(1S,3R,4R)-4-(2-hydroxyethoxy)-3-methoxycyclohexyl]-1-methylethyl}-19,30-dimethoxy-15,17,21,23,29,35-hexamethyl-11,36-dioxa-4-aza-tricyclo[30.3.1.04,9]hexatriaconta-16,24,26,28-tetraene-2,3,10,14,20-pentaone]", "values": [
      {"measurement": "concentration at 24 h", "setting": "[1]; NSG, lowest dose tested (0.3 mg/kg), oral, read-out: RAD001 concentration in the blood 24 hours after dosing", "value": "> 10", "unit": "nM"},
      {"measurement": "stability in the blood of tumor bearing mice", "setting": "[1]; daily oral dosing, NSG mice", "value": "fairly stable"},
      {"measurement": "RAD001 concentration in the blood 24 hours after dosing", "setting": "[1]; day 14, lowest dose tested (0.3 mg/kg), oral", "value": "above 10 nm"},
      {"measurement": "concentration at 24 h", "setting": "[1]; 0.3 mg/kg, NSG mice, daily oral dosing, read-out: concentration of RAD001 24 hours after the final dose", "value": "> 10", "unit": "nM"},
      {"measurement": "proliferation of huCART19 cells versus no RAD001", "setting": "huCART19 cells; 0.0032 nM RAD001", "value": "higher than observed without the addition of RAD001"},
      {"measurement": "proliferation of huCART19 cells versus no RAD001", "setting": "huCART19 cells; 0.016 nM RAD001", "value": "higher than observed without the addition of RAD001"},
      {"measurement": "RAD001 concentration at which huCART19 cells expanded", "setting": "huCART19 cells; 4 day co-culture with Nalm-6, ratio 1:1", "value": "less than 0.016 nM"},
      {"measurement": "proliferation of CAR-expressing, transduced T cells", "setting": "huCART19 cells; low doses of RAD001, cell culture system, FIG. 12", "value": "enhanced"},
      {"measurement": "growth of NALM6-luc tumors", "setting": "NALM6-luc tumors", "value": "did not have an impact on the growth of NALM6-luc tumors"},
      {"measurement": "CAR T cell proliferation in vivo versus normal level of huCAR19 proliferation", "setting": "huCAR19 CAR T cells; 0.003 mg/kg RAD001 daily", "value": "enhancement in CAR T cell proliferation"},
      {"measurement": "enhanced proliferation, CD4+ CAR T cells compared with CD8+ CAR T cells", "setting": "huCAR19 CAR T cells; lowest doses of RAD001", "value": "more evident and prolonged"},
      {"measurement": "proliferation of CD8+ CAR T cells in vivo", "setting": "huCAR19 CAR T cells; lowest doses of RAD001", "value": "enhanced proliferation can be seen at early time points"},
      {"measurement": "proliferation of the CAR T cells in vivo", "setting": "huCAR19 CAR T cells; lowest doses of RAD001, daily oral", "value": "enhanced proliferation"}
    ]}
  ]
}
